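These data come from cells grown in 96-well plates and exposed to compound for 48 hours at five concentrations. Here, GI50 denotes the concentration required for 50% inhibition of growth. Definition used: TGI = concentration required for complete inhibition of growth.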
Tests used:
Assay in all cases: NCI tumour cell line growth inhibition, 48 h
COLO 205 colon = test system: COLO 205 colon
SF-268 CNS = test system: SF-268 CNS
SK-OV-3 ovarian = test system: SK-OV-3 ovarian
OVCAR-3 ovarian = test system: OVCAR-3 ovarian
HCC-2998 colon = test system: HCC-2998 colon
DU-145 prostate = test system: DU-145 prostate
MDA-MB-231 breast = test system: MDA-MB-231 breast
OVCAR-5 ovarian = test system: OVCAR-5 ovarian
U251 CNS = test system: U251 CNS
MOLT-4 leukemia = test system: MOLT-4 leukemia

Structure (SMILES)	TGI (COLO 205 colon)	TGI (SF-268 CNS)	TGI (SK-OV-3 ovarian)	TGI (OVCAR-3 ovarian)	TGI (HCC-2998 colon)	TGI (DU-145 prostate)	TGI (MDA-MB-231 breast)	TGI (OVCAR-5 ovarian)	TGI (U251 CNS)	TGI (MOLT-4 leukemia)	GI50 (COLO 205 colon)	GI50 (SF-268 CNS)	GI50 (SK-OV-3 ovarian)	GI50 (OVCAR-3 ovarian)	GI50 (HCC-2998 colon)	GI50 (DU-145 prostate)	GI50 (MDA-MB-231 breast)	GI50 (OVCAR-5 ovarian)	GI50 (U251 CNS)	GI50 (MOLT-4 leukemia)
COc1cc2[nH]c3c(c2cc1OC)CCN[C@@]31CC[C@@]2(CC3c4c(cc(OC)c(O)c42)CCN3C)C[C@@H]1OC (stereo not given in full)	38.4 µM	> 100 µM	> 100 µM	> 94.8 µM	> 83.4 µM	> 100 µM	> 100 µM	> 100 µM	> 91.4 µM	> 56.2 µM										
Clc1cnc(Nc2ccc(OCCN3CCCC3)cc2)nc1NCc1ccco1	4.05 µM	6.47 µM	34.1 µM	9.75 µM	9.59 µM	> 100 µM	13.5 µM	> 100 µM	11.4 µM	8.4 µM	1.71 µM	2.33 µM	3.62 µM	3.01 µM	2.92 µM	3.43 µM	2.48 µM	1.95 µM	2.81 µM	1.86 µM
C=CCc1c(O)c(C(=O)/C=C/c2ccc(Cl)cc2)c(OC)c2ccoc12	15.5 µM	12 µM	19.2 µM	4.41 µM	3.26 µM	18.1 µM	16.8 µM	9.71 µM	5.87 µM	> 100 µM	4.44 µM	3.25 µM	5.96 µM	1.97 µM	1.79 µM	3.85 µM	4.3 µM	2.8 µM	2.3 µM	2.61 µM
NS(=O)(=O)c1ccc(-n2nc3c(c2-c2cccs2)Cc2ccccc2-3)cc1	69.3 µM	> 100 µM	> 100 µM	44.4 µM	25.4 µM	24 µM	36.2 µM	48 µM	25.8 µM	3.97 µM	25.3 µM	> 100 µM	37.7 µM	14.4 µM	12.8 µM	10.6 µM	17.3 µM	18.5 µM	12.3 µM	1.43 µM
CCN1CCN(C(=O)[C@]23CC[C@@H](C)[C@H](C)[C@@H]2C2=CC[C@@H]4[C@@]5(C)CCC(=O)C(C)(C)[C@@H]5CC[C@@]4(C)[C@]2(C)CC3)CC1	2.37 µM	6.49 µM	4.83 µM	2.44 µM	1.82 µM	5.62 µM	1.5 µM	1.87 µM	1.85 µM	1.99 µM	1.02 µM	1.77 µM	1.51 µM	1.1 µM	0.922 µM	1.67 µM	0.779 µM	0.907 µM	0.854 µM	0.809 µM
COc1cc(OC)c(/C=C/C(=O)c2c(OC)cc(OC)cc2OC)c(OC)c1	3.96 µM	6.96 µM	25.9 µM	0.8 µM	10 µM	8.51 µM	31.1 µM	53 µM	9.43 µM	> 100 µM	1.08 µM	1.84 µM	2.66 µM	0.233 µM	1.24 µM	2.21 µM	1.51 µM	2.8 µM	1.11 µM	1.53 µM
CC1Cc2c(Cl)ncnc2N(C)c2ccccc21 (stereo not given)	3.41 µM	91.6 µM	12.6 µM	20.1 µM	10.6 µM	> 100 µM	5.05 µM	> 100 µM	37.9 µM	> 100 µM	1.77 µM	2.77 µM	2.37 µM	3.4 µM	3.01 µM	4.45 µM	2.39 µM	6.02 µM	3.92 µM	3.46 µM
COc1c(C(N)=O)cc(-c2ccc(Cl)cc2)cc1-c1ccc(S(N)(=O)=O)cc1	> 25 µM	> 25 µM	> 25 µM	> 25 µM	> 25 µM	> 25 µM	24.2 µM	> 25 µM	> 25 µM	> 20.7 µM	> 17.6 µM	8.81 µM	> 22 µM	9.79 µM	11.4 µM	9.29 µM	10.3 µM	15 µM	9.52 µM	8.96 µM
COc1ccc2c3ccnc(C(F)(F)F)c3n(CCCCN)c2c1	12.1 µM	21.5 µM	25.3 µM	15.3 µM	16.7 µM	21.2 µM	21.7 µM	22.4 µM	21.2 µM	12.8 µM	2.74 µM	6.62 µM	10.5 µM	3.82 µM	5.23 µM	9.04 µM	8.12 µM	8.62 µM	7.31 µM	3.93 µM

— PubChem BioAssay (NCI)
